Experimental data published in patent publication US4546176A, “7-Carboxymethoxyphenylacetamido-3-cephem derivatives and antibacterial preparations containing the same” (Eisai Co., Ltd., priority 1982, dated 1985).
Values after ≈ are worked out from the molar mass of the structure shown.

Experiments:
Kleb. pneumoniae EK-6 = assay: Antibacterial activities (MIC), Kleb. pneumoniae EK-6; format: cell-based; settings: Klebsiella pneumoniae, EK6
Excerpt: (§1) (1) Antibacterial activities (MIC):

Ser. marcescens ES-75 = assay: Antibacterial activities (MIC), Ser. marcescens ES-75; format: cell-based; settings: Serratia marcescens, ES75
Excerpt: as §1

Proteus morganii EP-14 = assay: Antibacterial activities (MIC), Proteus morganii EP-14; format: cell-based; settings: Morganella morganii, EP14
Excerpt: as §1

Pseud. aeruginosa EP-01 = assay: Antibacterial activities (MIC), Pseud. aeruginosa EP-01; format: cell-based; settings: Pseudomonas aeruginosa, EP01
Excerpt: as §1

Staph. aureus 209-P = assay: Antibacterial activities (MIC), Staph. aureus 209-P; format: cell-based; settings: Staphylococcus aureus
Excerpt: as §1

Escher. coli NIHJ = assay: Antibacterial activities (MIC), Escher. coli NIHJ; format: cell-based; settings: Escherichia coli
Excerpt: as §1

[1] = Urinary excretion rate in mice; format: in vivo, ICR male mice; settings: mouse, sc, 20 mg/kg subcutaneous, urine up to 6 hours, bioassay
Protocol: ICR male mice (body weight: 20-30 g) were used. Each compound was dissolved in an M/15 phosphate buffer (pH 7.0) and administered in an amount of 20 mg/kg by the subcutaneous route. Urine was collected up to 6 hours after the administration. The concentration of the compound was determined by the bioassey technique (the agar-well method) using Pseudomonas aeruginosa as a test microorganism. On the basis of the thus-determined concentration, its excreted amount was obtained. The urinary excretion rate was then calculated from the excreted amount based on the amount administered.

| SMILES | MIC (Kleb. pneumoniae EK-6) [µg/mL] | MIC (Ser. marcescens ES-75) [µg/mL] | MIC (Proteus morganii EP-14) [µg/mL] | MIC (Pseud. aeruginosa EP-01) [µg/mL] | MIC (Staph. aureus 209-P) [µg/mL] | MIC (Escher. coli NIHJ) [µg/mL] | dose excreted at 6 h [1] [%] |
| --- | --- | --- | --- | --- | --- | --- | --- |
| CCn1cc(C(=O)N[C@@H](C(=O)N[C@@H]2C(=O)N3C(C(=O)O)=C(CSc4nnnn4C)CS[C@H]23)c2ccc(OCC(=O)O)cc2)c(=O)c2cc(O)c(O)cc21 [Example 12, 7β-[D-2-(4-Carboxymethoxyphenyl)-2-(6,7-dihydroxy-1,4-dihydro-1-ethyl-4-oxoquinolin-3-carboxamido)-acetamido]-3-(1-methyl-5-tetrazolyl)thiomethyl-3-cephem-4-carboxylic acid] | ≤ 0.05 | ≤ 0.05 | 1.56 (≈ 2.03 µM) | 0.1 (≈ 0.13 µM) | 50 (≈ 65.2 µM) | 0.4 (≈ 0.522 µM) | – |
| Cc1oc2c(O)c(O)ccc2c(=O)c1C(=O)N[C@@H](C(=O)N[C@@H]1C(=O)N2C(C(=O)O)=C(CSc3nnnn3CC(=O)O)CS[C@H]12)c1ccc(OCC(=O)O)cc1 [Example 27, Trisodium 7β-[D-2-(4-carboxymethoxyphenyl)-2-(7,8-dihydroxy-2-methyl-4-oxo-4H-1-benzopyran-3-carboxamido)acetamido]-3-(1-carboxymethyl-5-tetrazolyl)-thiomethyl-3-cephem-4-carboxylate] | ≤ 0.05 | 0.8 | 6.25 | 0.8 | 100 | 0.4 | 30 |
| CC(=O)Oc1cc2oc(C)c(C(=O)N[C@@H](C(=O)N[C@@H]3C(=O)N4C(C(=O)[O-])=C(C[n+]5ccc(C(N)=O)cc5)CS[C@H]34)c3ccc(OCC(=O)O)cc3)c(=O)c2cc1OC(C)=O [Example 56, 7β-[D-2-(4-Carboxymethoxyphenyl)-2-(6,7-diacetoxy-2-methyl-4-oxo-4H-1-benzopyran-3-carboxamido)acetamido]-3-(4-carbamoylpyridinium)methyl-3-cephem-4-carboxylate] | ≤ 0.05 | 0.8 (≈ 0.948 µM) | 6.25 (≈ 7.41 µM) | 0.2 (≈ 0.237 µM) | 25 (≈ 29.6 µM) | 0.8 (≈ 0.948 µM) | – |
| CCOC(=O)Oc1cc2oc(C)c(C(=O)N[C@@H](C(=O)N[C@@H]3C(=O)N4C(C(=O)O)=C(COC(C)=O)CS[C@H]34)c3ccc(OCC(=O)O)cc3)c(=O)c2cc1OC(=O)OCC [Example 36] | ≤ 0.05 | 0.8 (≈ 0.95 µM) | 12.5 (≈ 14.8 µM) | 0.1 (≈ 0.119 µM) | 25 (≈ 29.7 µM) | 0.8 (≈ 0.95 µM) | – |
| CCn1cc(C(=O)N[C@@H](C(=O)N[C@@H]2C(=O)N3C(C(=O)O)=C(COC(C)=O)CS[C@H]23)c2ccc(OCC(=O)O)cc2)c(=O)c2cc(O)c(O)cc21 [Example 35, Disodium 7β-[D-2-(4-carboxymethoxyphenyl)-2-(6,7-dihydroxy-1-ethyl-1,4-dihydro-4-oxoquinoline-3-carboxamido)acetamido]-3-acetoxymethyl-3-cephem-4-carboxylate] | ≤ 0.05 | 1.56 | 12.5 | 0.2 | 50 | 0.8 | – |
| CC(=O)OCC1=C(C(=O)O)N2C(=O)[C@@H](NC(=O)[C@H](NC(=O)c3coc4c(OC(C)=O)c(OC(C)=O)ccc4c3=O)c3ccc(OCC(=O)O)cc3)[C@H]2SC1 [Example 17, 7β-[D-2-(4-Carboxymethoxyphenyl)-2-(7,8-diacetoxy-4-oxo-4H-1-benzopyran-3-carboxamido)acetamido]-3-acetoxymethyl-3-cephem-4-carboxylic acid] | ≤ 0.05 | 1.56 (≈ 2.03 µM) | 12.5 (≈ 16.3 µM) | 0.8 (≈ 1.04 µM) | 50 (≈ 65.1 µM) | 0.8 (≈ 1.04 µM) | – |
| Cn1nnnc1SCC1=C(C(=O)O)N2C(=O)[C@@H](NC(=O)[C@H](NC(=O)c3coc4c(O)c(O)ccc4c3=O)c3ccc(OCC(=O)O)cc3)[C@H]2SC1 [Example 9, 7β-[D-2-(4-Carboxymethoxyphenyl)-2-(7,8-dihydroxy-4-oxo-4H-1-benzopyran-3-carboxamido)acetamido]-3-(1-methyl-5-tetrazolyl)thiomethyl-3-cephem-4-carboxylic acid] | ≤ 0.05 | 0.2 (≈ 0.27 µM) | 1.56 (≈ 2.11 µM) | ≤ 0.05 | 25 (≈ 33.8 µM) | 0.4 (≈ 0.541 µM) | – |
| CC(=O)Oc1ccc2c(=O)c(C(=O)N[C@@H](C(=O)N[C@@H]3C(=O)N4C(C(=O)O)=C(CSc5nnnn5CC(=O)O)CS[C@H]34)c3ccc(OCC(=O)O)cc3)coc2c1OC(C)=O [Example 16, 7β-[D-2-(4-carboxymethoxyphenyl)-2-(7,8-diacetoxy-4-oxo-4H-1-benzopyran-3-carboxamido)acetamido]-3-(1-carboxymethyl-5-tetrazolyl)thiomethyl-3-cephem-4-carboxylic acid] | 0.2 (≈ 0.23 µM) | 0.8 (≈ 0.922 µM) | 6.25 (≈ 7.2 µM) | 0.8 (≈ 0.922 µM) | 100 (≈ 115 µM) | 0.8 (≈ 0.922 µM) | – |
| CN(C)CCn1nnnc1SCC1=C(C(=O)O)N2C(=O)[C@@H](NC(=O)[C@H](NC(=O)c3coc4cc(O)c(O)cc4c3=O)c3ccc(OCC(=O)O)cc3)[C@H]2SC1 [Example 14, Disodium 7β-[D-2-(4-carboxymethoxyphenyl)-2-(6,7-dihydroxy-4-oxo-4H-1-benzopyran-3-carboxamido)-acetamido]-3-[1-(2-N,N-dimethylaminoethyl)-5-tetrazolyl]-thiomethyl-3-cephem-4-carboxylate] | ≤ 0.05 | 0.2 | 3.13 | 0.1 | 25 | 0.4 | – |
| CC(=O)Oc1cc2oc(C)c(C(=O)N[C@@H](C(=O)N[C@@H]3C(=O)N4C(C(=O)O)=C(CSc5nnnn5CC(=O)O)CS[C@H]34)c3ccc(OCC(=O)O)cc3)c(=O)c2cc1OC(C)=O [Example 22, 7β-[D-2-(4-Carboxymethoxyphenyl)-2-(6,7-diacetoxy-2-methyl-4-oxo-4H-1-benzopyran-3-carboxamido)-acetamido]-3-(1-carboxymethyl-5-tetrazolyl)thiomethyl-3-cephem-4-carboxylic acid] | ≤ 0.05 | 0.1 (≈ 0.113 µM) | 3.13 (≈ 3.55 µM) | 0.2 (≈ 0.227 µM) | 100 (≈ 113 µM) | 0.2 (≈ 0.227 µM) | – |
| CC(=O)OCC1=C(C(=O)O)N2C(=O)[C@@H](NC(=O)[C@H](NC(=O)c3coc4cc(O)c(O)cc4c3=O)c3ccc(OCC(=O)O)cc3)[C@H]2SC1 [Example 1, 7β-[D-2-(4-Carboxymethoxyphenyl)-2-(6,7-dihydroxy-4-oxo-4H-1-benzopyran-3-carboxamido)-acetamido]-3-acetoxymethyl-3-cephem-4-carboxylic acid] | ≤ 0.05 | 0.2 (≈ 0.293 µM) | 6.25 (≈ 9.14 µM) | ≤ 0.05 | 25 (≈ 36.6 µM) | 0.2 (≈ 0.293 µM) | – |
| CC(=O)Oc1ccc2c(=O)c(C(=O)N[C@@H](C(=O)N[C@@H]3C(=O)N4C(C(=O)O)=C(CSc5nnnn5CC(=O)O)CS[C@H]34)c3ccc(OCC(=O)O)cc3)c(C)oc2c1OC(C)=O [Example 23, 7β-[D-2-(4-Carboxymethoxyphenyl)-2-(7,8-diacetoxy-2-methyl-4-oxo-4H-1-benzopyran-3-carboxamido)-acetamido]-3-(1-carboxymethyl-5-tetrazolyl)thiomethyl-3-cephem-4-carboxylic acid] | ≤ 0.05 | 0.8 (≈ 0.907 µM) | 6.25 (≈ 7.09 µM) | 0.8 (≈ 0.907 µM) | 100 (≈ 113 µM) | 0.4 (≈ 0.454 µM) | – |
| Cc1nnc(SCC2=C(C(=O)O)N3C(=O)[C@@H](NC(=O)[C@H](NC(=O)c4coc5cc(O)c(O)cc5c4=O)c4ccc(OCC(=O)O)cc4)[C@H]3SC2)s1 [Example 6, Disodium 7β-[D-2-(4-carboxymethoxyphenyl)-2-(6,7-dihydroxy-4-oxo-4H-1-benzopyran-3-carboxamido)-acetamido]-3-[5-methyl-2-(1,3,4-thiadiazolyl)]-thiomethyl-3-cephem-4-carboxylate] | ≤ 0.05 | 0.2 | 1.56 | ≤ 0.05 | 3.13 | 0.8 | – |
| CO[C@@]1(NC(=O)[C@H](NC(=O)c2c(C)oc3cc(O)c(O)cc3c2=O)c2ccc(OCC(=O)O)cc2)C(=O)N2C(C(=O)[O-])=C(C[n+]3ccc(C(N)=O)cc3)CS[C@@H]21 [Example 49, 7β-[D-2-(4-Carboxymethoxyphenyl)-2-(6,7-dihydroxy-2-methyl-4-oxo-4H-1-benzopyran-3-carboxamido)-acetamido]-7α-methoxy-3-(4-carbamoylpyridinium)-methyl-3-cephem-4-carboxylate] | – | – | – | – | – | – | 35 |
| CC(=O)OCC1=C(C(=O)O)N2C(=O)[C@@H](NC(=O)[C@H](NC(=O)c3c(C)oc4cc(O)c(O)cc4c3=O)c3ccc(OCC(=O)O)cc3)[C@H]2SC1 [Example 29, Disodium 7β-[D-2-(4-carboxymethoxyphenyl)-2-(6,7-dihydroxy-2-methyl-4-oxo-4H-1-benzopyran-3-carboxamido)acetamido]-3-acetoxymethyl-3-cephem-4-carboxylate] | ≤ 0.05 | 0.4 | 12.5 | 0.2 | 50 | 0.4 | – |
| Cn1nnnc1SCC1=C(C(=O)O)N2C(=O)[C@@H](NC(=O)[C@H](NC(=O)c3cc4ccc(O)c(O)c4oc3=O)c3ccc(OCC(=O)O)cc3)[C@H]2SC1 [Example 10, 7β-[D-2-(4-Carboxymethoxyphenyl)-2-(7,8-dihydroxyphenyl)-2-(7,8-dihydroxy-2-oxo-2H-1-benzopyran-3-carboxamido)acetamido]-3-(1-methyl-5-tetrazolyl)-thiomethyl-3-cephem-4-carboxylic acid] | ≤ 0.05 | 0.1 (≈ 0.135 µM) | 3.13 (≈ 4.23 µM) | ≤ 0.05 | 12.5 (≈ 16.9 µM) | 0.4 (≈ 0.541 µM) | – |
